How the values were obtained:
[1] = system: human colon carcinoma cell line HCT 116; assay: Anti-proliferative activity, Alamar Blue assay; type: cell-based; conditions: HCT 116, 72 hours, read-out: IC50 (inhibition of cell growth)
Procedure: The anti-proliferative activities of compounds of the invention are determined by measuring the ability of the compounds to inhibition of cell growth in a number of cell lines Inhibition of cell growth is measured using the Alamar Blue assay (Nociari, M. M, Shalev, A., Benias, P., Russo, C. Journal of Immunological Methods 1998, 213, 157-167). The method is based on the ability of viable cells to reduce resazurin to its fluorescent product resorufin. For each proliferation assay cells are plated onto 96 well plates and allowed to recover for 16 hours prior to the addition of inhibitor compounds for a further 72 hours. At the end of the incubation period 10% (v/v) Alamar Blue is added and incubated for a further 6 hours prior to determination of fluorescent product at […]. In the case of the non-proliferating cell assay cells are maintained at confluence for 96 hour prior to the addition of inhibitor compounds for a further 72 hours. The number of viable cells is determined by Alamar Blue assay as before. All cell lines are obtained from ECACC (European Collection of cell Cultures).

GSK3-β = target: T1, GSK3-β (Homo sapiens, UniProt P49841); assay: Inhibitory activity against glycogen synthase kinase-3 (Protocol A or B); type: biochemical; conditions: either Protocol A or Protocol B; read-out: IC50 (GSK3-B assays)
T1 construct: purchased Upstate Discovery
T1 sequence (P49841 whole entry): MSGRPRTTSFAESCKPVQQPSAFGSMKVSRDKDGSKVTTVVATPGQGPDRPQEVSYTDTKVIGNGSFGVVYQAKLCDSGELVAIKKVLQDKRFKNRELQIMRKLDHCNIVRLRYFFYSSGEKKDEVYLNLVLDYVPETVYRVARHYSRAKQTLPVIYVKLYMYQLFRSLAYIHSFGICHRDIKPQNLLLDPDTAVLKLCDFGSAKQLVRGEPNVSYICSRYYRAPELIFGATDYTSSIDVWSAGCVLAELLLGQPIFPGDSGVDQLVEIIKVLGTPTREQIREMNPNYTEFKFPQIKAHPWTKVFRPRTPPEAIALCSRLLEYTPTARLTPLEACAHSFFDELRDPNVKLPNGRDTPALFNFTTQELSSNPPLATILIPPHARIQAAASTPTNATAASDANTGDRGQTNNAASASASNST
Procedure: The activities of the compounds of the invention as inhibitors of GSK-3 were determined using either Protocol A or Protocol B below.
The reaction is allowed to proceed for 3 hours before being stopped with an excess of ortho-phosphoric acid (5 μl at 2%). The filtration procedure is as for Activated CDK2/CyclinA assay above.
GSK3β (human) is diluted to a 10× working stock in 50 mM Tris pH 7.5, 0.1 mM EGTA, 0.1 mM sodium vanadate, 0.1% β-mercaptoethanol, 1 mg/ml BSA.

IC50 [1] | IC50 (GSK3-β) | SMILES
< 20 µM | – | COc1ccc(CNC(=O)c2n[nH]cc2NC(=O)c2c(F)cccc2F)cc1 [Example 62]
< 20 µM | – | CN1CCN(c2ccc(CNC(=O)c3n[nH]cc3NC(=O)c3c(F)cccc3F)cc2)CC1 [Example 64]
< 20 µM | < 10 µM | CC(C)(C)C1CCC(NC(=O)c2n[nH]cc2NC(=O)c2c(F)cccc2F)CC1 (centres unmarked) [Example 77]

SMILES | IC50 [1] | IC50 (GSK3-β)
O=C(NC1CCNCC1)c1n[nH]cc1NC(=O)c1c(Cl)cccc1Cl [Example 150] | < 20 µM | –
